# According to patent US11260072B2, “MicroRNA-based methods and assays for osteocarcinoma” (3-D Matrix, Ltd., priority 2011, dated 2022):
# Entries after “also recorded” stand apart in the source; their conditions may differ.
# Key:
# [1] = test system: CD133^high cells; assay: cytotoxicity assay (drug sensitivity) after LNA transfection; type: cell-based, human; settings: DOX 0.4 μM or CDDP 5 μM, 48 h, 24 h after transfection
# Protocol: Cell proliferation and cytotoxity assay. Cell proliferation rates and cell viability as an indicator for the relative sensitivity of the cells to doxorubicin, cisplatin, and methotrexate were determined using TetraColor ONE Cell proliferation Assay System (Seikagaku) according to the manufacturer's instructions. […] Triplicate wells were used for each treatment group. Absorbance was measured at 450 nm with a reference wavelength at 650 nm on EnVision (Wallac). The relative number of viable cells was expressed as the percent of cell viability.
# (§1) Transfection with synthetic miRNAs, LNAs, and siRNAs. Synthetic hsa-miRs (Pre-miR-hsa-miR-1, -10b, -133a, and negative control (NC; Applied Biosystems, Table 2) and locked nucleic acids (LNAs) (LNA-1, -10b, -133a, and negative control, Exiqon, Table 3) were transfected into each type of cells at 30 nM each (final concentration) using DharmaFECT 1(GE Healthcare). Synthetic siRNAs (Bonac corporation, Table 4) were transfected into each type of cells at 100 nM each (final concentration) using DharmaFECT 1 (GE Healthcare). After 24 hours of incubation, cells were treated with chemotherapeutic agents for cytotoxicity assay or reseeded into invasion chambers for invasion assay.
# [2] = test system: miR-133a; assay: miR-133a expression in 143B-luc tumors (qRT-PCR); type: in vivo, human; settings: vs saline-treated mice
# Excerpt: RNA isolation and quantitative real-time RT-PCR of mRNAs and miRNAs. Total RNA was purified from cells and tumor tissues with an RNeasy Mini Kit and RNase-Free DNase Set (QIAGEN). For quantitative polymerase chain reaction (qPCR) of mRNAs, cDNA was synthesized using High-Capacity cDNA Reverse Transcription Kit (Applied Biosystems). For each qPCR reaction, equal amounts of cDNA were mixed with Platinum SYBER Green qPCR SuperMix (Invitrogen) and specific primers (Table 1). Gene expression levels were normalized by beta actin (ACTB) or glyceraldehyde 3-phosphate dehydrogenase (GAPDH). For qPCR of miRNAs, miRNA was converted to cDNA using the TaqMan MicroRNA Reverse Transcription Kit (Applied Biosystems). […]
# To extend the in vitro findings and to determine whether silencing of miR-133a could be an effective therapeutic option for osteosarcoma treatment, the effect of LNA-133a on a spontaneous lung metastasis model of osteosarcoma was examined. […] The implanted tumor growth and the presence of distant metastases were analyzed weekly for luciferase bioluminescence using an in vivo imaging system (IVIS). […] At 5 weeks, half the mice in each group were euthanized for further analysis; the remaining mice were monitored for survival.
# [3] = test system: 143B-luc; assay: spontaneous lung metastasis model of osteosarcoma (143B-luc implanted orthotopically into tibia); type: in vivo, athymic nude mice
# Protocol: Tumor transplantation experiments. Animal experiments were performed in compliance with the guidelines of the Institute for Laboratory Animal Research, National Cancer Center Research Institute. Athymic nude mice or NOD/SCID mice (CLEA Japan) were purchased at 4 weeks of age and given at least 1 week to adapt to their new environment prior to tumor transplantation. On day 0, mice were anesthetized with 3% isoflurane and the right leg disinfected with 70% ethanol. Cells were aspirated into a 1 mL tuberculin syringe fitted with a 27-G needle. The needle was inserted through the cortex of the anterior tuberosity of the tibia with a rotating movement to avoid cortical fracture. Once the bone was traversed, the needle was inserted further to fracture the posterior cortex of the tibia. A 100 μL volume of solution containing freshly isolated CD133^high and CD133^low HOS-Luc (10^2, 10^3, 10^4, 10^5 cells per site) or 143B-Luc (1.5×10^6) was injected while slowly moving back the needle.
# (§2) Monitoring tumor growth, lung metastasis, and toxicity with/without LAN-anti-miR-133a. For the assessment of tumorigenicity between CD133^high and CD133^low HOS-Luc cells, NOD/SCID mice were injected with D-luciferin (150 mg/kg, Promega) by intraperitoneal injection. Ten minutes later, photons from firefly luciferase were counted using the IVIS imaging system (Xenogen Corp.) according to the manufacturer's instructions. Each experimental condition included 5 animals per group and monitoring once a week. For the evaluation of LNA-anti-miR-133a administration into spontaneous lung metastasis of osteosarcoma model mice, individual mice were injected with 10 mg/kg of LNA-anti-miR-133a or saline via the tail vain. LNA were injected on following days 4, 11, 18, 25, 32 postinoculation of 143B-Luc cells. Each experimental condition included 10 animals per group. The development of subsequent lung metastasis was monitored once a week in vivo by the bioluminescent imaging described above for 5 weeks. All data were analyzed using LivingImage software (version 2.50, Xenogen). On day 36, the primary tumor and lung in 5 mice of each group were resected at necropsy for their weight, bioluminescent, and histological analyses. The blood examination, weight of whole body as well as heart, liver, and skeletal muscle, and histopathological examination were performed for the assessment of toxicity.
# To extend the in vitro findings and to determine whether silencing of miR-133a could be an effective therapeutic option for osteosarcoma treatment, the effect of LNA-133a on a spontaneous lung metastasis model of osteosarcoma was examined. Experimentally, 1.5×10^6 cells of 143B transfected with firefly luciferase gene (143B-luc) were implanted orthotopically into the right proximal tibia of athymic nude mice. The implanted tumor growth and the presence of distant metastases were analyzed weekly for luciferase bioluminescence using an in vivo imaging system (IVIS). […] To assess the efficacy of the new treatment protocol, results were compared with three control groups (n=10 each): a saline control group, an LNA group, and a CDDP group. At 5 weeks, half the mice in each group were euthanized for further analysis; the remaining mice were monitored for survival.
# [4] = test system: miR-133a; assay: silencing of miR-133a in LNA-transfected CD133high cells (real-time RT-PCR); type: cell-based, human; settings: CD133high SaOS2 and HOS cells, LNA 30 nM
# Excerpt: (§3) RNA isolation and quantitative real-time RT-PCR of mRNAs and miRNAs. Total RNA was purified from cells and tumor tissues with an RNeasy Mini Kit and RNase-Free DNase Set (QIAGEN). For quantitative polymerase chain reaction (qPCR) of mRNAs, cDNA was synthesized using High-Capacity cDNA Reverse Transcription Kit (Applied Biosystems). For each qPCR reaction, equal amounts of cDNA were mixed with Platinum SYBER Green qPCR SuperMix (Invitrogen) and specific primers (Table 1). Gene expression levels were normalized by beta actin (ACTB) or glyceraldehyde 3-phosphate dehydrogenase (GAPDH). For qPCR of miRNAs, miRNA was converted to cDNA using the TaqMan MicroRNA Reverse Transcription Kit (Applied Biosystems). RNU6B small nuclear RNA was amplified as an internal control. qPCR was performed using each miRNA-specific probe included with the TaqMan MicroRNA Assay on a Real-Time PCR System 7300 and SDS software (Applied Biosystems).
# (§4) Transfection with synthetic miRNAs, LNAs, and siRNAs. […]
# [5] = test system: CD133^high cells; assay: qPCR of genes associated with stemness, drug resistance and metastasis after LNA transfection; type: cell-based, human; settings: β-actin internal control
# Excerpt: as §3, §4
# [6] = assessment of toxicity in LNA-treated tumor-bearing mice; type: in vivo; settings: during the observation period
# Protocol: as §2
# [7] = test system: CD133^high SaOS2 and HOS cells; assay: cell proliferation after LNA transfection; type: cell-based, human; settings: day 4 after transfection
# Protocol: Cell proliferation and cytotoxity assay. Cell proliferation rates and cell viability as an indicator for the relative sensitivity of the cells to doxorubicin, cisplatin, and methotrexate were determined using TetraColor ONE Cell proliferation Assay System (Seikagaku) according to the manufacturer's instructions. Cells growing in the logarithmic phase were seeded in 96-well plates (5×10^3/well), allowed to attach overnight, and then were treated with varying doses of doxorubicin (Sigma), cisplatin (Alexis), and methotrexate (Sigma) for 72 h. Triplicate wells were used for each treatment group. Absorbance was measured at 450 nm with a reference wavelength at 650 nm on EnVision (Wallac). The relative number of viable cells was expressed as the percent of cell viability.
# as §4
# [8] = test system: CD133^high SaOS2 and HOS populations; assay: invasion assay after LNA transfection; type: cell-based, human
# Protocol: Invasion assay. Invasion assays were performed by using 24-well BD BioCoat Invasion Chambers with Matrigel (Becton-Dickinson). 1×10^5 cells, suspended in 500 μL DMEM or RPMI 1640 medium without FBS, were added to the upper chamber, and DMEM or RPMI 1640 medium with 10% FBS was added to the lower chamber. After incubation for 24 h or 36 h, the cells on the upper surface of the filter were completely removed by wiping them with cotton swabs. The filters were fixed in methanol and stained with 1% toluidine blue in 1% sodium tetraborate (Sysmex). Filters were then mounted onto slides, and cells on lower surfaces were counted. Each assay was performed in triplicate.
# as §1
# [9] = test system: SGMS2; assay: SGMS2 mRNA in 143B-luc tumors of LNA-133a-treated mice; type: in vivo, human
# Excerpt: as §3
# Monitoring tumor growth, lung metastasis, and toxicity with/without LAN-anti-miR-133a. […] Ten minutes later, photons from firefly luciferase were counted using the IVIS imaging system (Xenogen Corp.) according to the manufacturer's instructions. […] The development of subsequent lung metastasis was monitored once a week in vivo by the bioluminescent imaging described above for 5 weeks. All data were analyzed using LivingImage software (version 2.50, Xenogen). […]
# [10] = test system: CD133^high cells; assay: apoptotic cell count (Hoechst staining) after LNA transfection; type: cell-based, human; settings: compared to control CD133high cells; CDDP 5 μM, 48 h
substance,measurement,setting,value
"LNA-133a: locked nucleic acid antisense to hsa-miR-133a-1, 5′-CAGCTGGTTGAAGGGGACCAA-3′ (Exiqon) (LNA-modified oligonucleotide from Exiqon, pattern not given here)",sensitivity to DOX and CDDP (cell viability),[1],enhanced sensitivity to DOX and CDDP
same,expression of miR-133a of tumors,[2],reduced miR-133a levels; also recorded: decreased
same,Luminescence of lung (mean),[3]; IVIS bioluminescence,1744
same,Lung metastasis (mice with metastasis / mice in group),[3]; day 35,7/10
same,Tumor weight (mean),"[3]; day 36, LNA-133a 10 mg kg-1 i.v., CDDP i.p.",3.143 g
same,efficacy for the silencing of miR-133a,[4],confirmed; also recorded: knock-down
same,expression of the molecules associated with CD133high phenotypes,[5],decreased
same,"toxic effects on various tissue including heart, liver, and skeletal muscle",[6],minimal toxic effects
same,proliferation rate,[7],suppressed in proliferation rate to the same level of CD133^low cells transfected with LNA-NC
same,invasiveness,[8],decreased the invasiveness
same,expression of mRNA for SGMS2,[9],increased expression
same,apoptotic cell death rate,[10],significantly higher apoptotic cell death rate
